Test results as given in ChEMBL document CHEMBL1141521, “Individual stereoisomers of phosphinic dipeptide inhibitor of leucine aminopeptidase” (Bioorg Med Chem Lett, 2008).
pKi: −log10 of the molar value.

Target: T1, Leucine aminopeptidase (Plasmodium falciparum 3D7, UniProt Q8IL11)
T1 sequence (Q8IL11 whole entry): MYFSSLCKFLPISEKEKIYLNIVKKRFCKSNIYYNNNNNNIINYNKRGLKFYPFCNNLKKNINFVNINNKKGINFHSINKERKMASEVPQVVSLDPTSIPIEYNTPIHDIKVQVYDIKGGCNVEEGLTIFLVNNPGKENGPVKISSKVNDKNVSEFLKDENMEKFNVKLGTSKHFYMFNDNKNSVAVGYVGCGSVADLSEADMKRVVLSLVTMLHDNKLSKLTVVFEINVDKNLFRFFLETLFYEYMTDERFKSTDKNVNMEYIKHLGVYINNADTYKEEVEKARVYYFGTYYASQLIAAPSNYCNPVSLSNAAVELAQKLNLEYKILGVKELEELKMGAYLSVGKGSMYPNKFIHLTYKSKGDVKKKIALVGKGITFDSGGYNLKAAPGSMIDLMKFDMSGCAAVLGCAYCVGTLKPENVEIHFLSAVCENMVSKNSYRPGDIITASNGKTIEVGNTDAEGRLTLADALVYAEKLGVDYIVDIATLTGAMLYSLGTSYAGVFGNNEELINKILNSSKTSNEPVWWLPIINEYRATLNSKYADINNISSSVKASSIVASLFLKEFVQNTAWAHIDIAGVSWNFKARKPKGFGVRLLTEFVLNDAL
Test: Inhibition of Plasmodium falciparum recombinant leucine aminopeptidase

pKi: 7.88
Structure (SMILES): NC(CCc1ccccc1)P(=O)(O)CC(Cc1ccccc1)C(=O)O (stereo unspecified)
